The values that follow come from patent US20220142948A1, “COMPOSITIONS AND METHODS FOR MODULATING METABOLIC REGULATORS OF T CELL PATHOGENICITY” (The Broad Institute, Inc., priority 2019, published 2022).

In one experiment the target is T1, ODC (Homo sapiens, UniProt P11926).
T1 sequence (P11926 1-461): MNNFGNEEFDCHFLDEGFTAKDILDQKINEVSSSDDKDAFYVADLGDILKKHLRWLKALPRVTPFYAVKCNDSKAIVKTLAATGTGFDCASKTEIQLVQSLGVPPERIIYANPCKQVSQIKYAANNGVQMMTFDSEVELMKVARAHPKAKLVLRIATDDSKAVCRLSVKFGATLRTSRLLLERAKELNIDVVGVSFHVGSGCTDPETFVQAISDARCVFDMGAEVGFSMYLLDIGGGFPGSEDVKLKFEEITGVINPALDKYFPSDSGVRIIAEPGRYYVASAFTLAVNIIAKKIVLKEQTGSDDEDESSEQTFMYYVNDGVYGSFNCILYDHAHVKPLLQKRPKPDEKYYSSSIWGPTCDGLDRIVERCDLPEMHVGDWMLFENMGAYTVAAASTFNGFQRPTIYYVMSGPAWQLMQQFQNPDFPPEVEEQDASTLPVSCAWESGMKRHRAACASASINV
The settings on record: cited from earlier work.

For experiment [1], the system named is experimental autoimmune encephalomyelitis (EAE). The experiment in a line: Adoptive transfer EAE with 2D2 TCR-transgenic Th17 cells differentiated in the presence of inhibitor. The experiment is classed as in vivo, mouse. From the text:
For adoptive transfer EAE, naïve 2D2 transgenic T cells were sorted and differentiated into Th17n cells+/−EGCG or Th17p+/−DHEA as described for three days followed by a resting phase in the presence of IL-23 alone for 2 days. Cells were then harvested and restimulated with plate-bound anti-CD3 and anti-CD28 for 2 days prior to transfer. 2-8 million cells were transferred per mouse intravenously.
For adoptive transfer EAE, naive T cells (CD4+CD44-CD62L+CD25-) were isolated from 2D2 TCR-transgenic mice and activated with anti-CD3 ([…]) and anti-CD28 ([…]) in the presence of differentiation cytokines for 68h. Cells were rested for 2 days and restimulated with plate-bound anti-CD3 (0.5 mg/ml for pathogenic condition; […] for non-pathogenic condition) and anti-CD28 ([…]) for 2 days prior to transfer. Equal number (2 to 8 million) cells were transferred per mouse intravenously.

“Also recorded” adds a separate entry of the source.

Regarding `NCCC[C@](N)(C(=O)O)C(F)F` [DFMO, 2-(difluoromethyl)ornithine], on ODC (cells treated in vivo with DFMO), the “uptake of exogenous putrescine” value is given as “significantly increase”. Further, on ODC (in vivo), the ODC activity entry is “irreversibly inhibit”.

Turning to epigallocatechin-3-gallate [EGCG], the “optic neuritis/perineuritis in host mice” value in experiment [1] (EGCG on Th17n, DHEA on Th17p) is reported as “promoted”. The EAE severity entry in experiment [1] (Th17n cells with IL-23 in differentiation culture, vs IL-23+solvent) is “significantly more severe EAE”. The “number of CNS lesions (meninges and parenchyma)” value in experiment [1] (Th17n transfer) is reported as “increased number of CNS lesions”. Further, the “Wallerian degeneration in proximal spinal nerve roots” value in experiment [1] (mouse, in vivo) was “only experimental group to produce Wallerian degeneration; also recorded: induce Wallerian degeneration; also recorded: greater”. Besides, in experiment [1] (recipients of EGCG-treated Th17n cells, control group 0/12), the EAE incidence rate is 10/12. For the same compound, in experiment [1] (vs. Control mice), the meningeal inflammation result is “greater meningeal inflammation”.
